In patent publication US20070066615A1, “Heterocyclic compounds” (BAYER HEATHCARE AG, priority 2003, published 2007):

For `O=C(NCC1CN(c2ccc(N3CCCC3=O)cc2)C(=O)CO1)c1ccc(Cl)s1` (stereo not shown) [Example 4, 5-Chloro-N-({5-oxo-4-[4-(2-oxo-1-pyrrolidinyl)phenyl]-2-morpholinyl}methyl)-2-thiophenecarboxamide], the melting point was 201 °C (dec.).
